The results in this text go back to US5273985A, “Glycerin derivative and its pharmacological use” (Eisai Co., Ltd., priority 1988, dated 1993).

For orientation: IC50 means the concentration that inhibits the measured activity by half.

For data set [1], the system named is platelet agglutination caused by PAF. Nature of the data set: Inhibition of platelet agglutination caused by human PAF (platelet-rich plasma, optical method of Born). In kind it is cell-based. To be noted: PAF at minimum concentration for maximum agglutination, read-out: Agglutination inhibiting activity IC50. The method, then: Effect on the Agglutination Caused by Human PAF
One part by volume of a 3.8% sodium citrate solution was added to 9 parts by volume of blood sampled from the forearm of a healthy adult to whom had been administered no medicine for at least two weeks. A platelet-rich plasma (PRP) was prepared by centrifugation. The inhibition of the platelet agglutination was determined by an optical method of Born et al. with a Hematolaser II® (a platelet agglutination meter of Niko Bioscience Co.). PAF was dissolved in Tyrode solution [Ca^++ (+)] to form a solution having the minimum concentration for causing the maximum agglutination. The test compound was dissolved in a physiological saline.
The agglutination inhibiting activity of the test compound was determined from the rate of inhibition of the maximum light transmittance (maximum agglutination rate) caused by PAF in control PRP. IC50 was determined from the inhibition curve.
The numeral in the column of the Test compound in Table 1 refers to the Example number of the compound.

A further data set has as its target T1, Human PAF Receptor (Homo sapiens, UniProt P25105).
T1 construct: The platelets were sampled from healthy males by an ordinary method; endogenous in cells; host or cells: human platelets from healthy males (intact platelet suspension)
Put plainly: Human PAF receptor binding assay (3H-PAF, platelets). To be noted: 3H-PAF 0.6 to 1 nM, 37° C., read-out: PAF receptor antagonism IC50. The method, then:
Human PAF Receptor Binding Assay
The platelets were sampled from healthy males by an ordinary method and suspended in a binding buffer [10 mM phosphate-buffered saline (pH 7.0) containing 0.1 w/v % of BSA and 0.9 mM of CaCl2) to form a suspension having a concentration of 10^8 /460 μl. 20 μl of a solution of the test compound in the binding buffer was placed in a polypropylene tube and then 460 μl of the platelet suspension was added thereto. The mixture was subjected to a vortex treatment and then incubated at 37° C. for 6 min. 20 μl of a solution of ^3 H-PAF in the binding buffer (final ^3 H-PAF concentration: 0.6 to 1 nM) was added thereto and the mixture was incubated for 6 min. 3 ml of a washing solution (saline containing 0.1 w/v % of BSA) cooled with ice was added thereto to terminate the reaction. The reaction mixture was filtered by suction through a glass filter (Whatman GF/C). The glass filter was dried and the radioactivity thereof was determined with a liquid scintillation counter.
The inhibition % was calculated according to the following equation and IC50 so was determined by interpolation from the figure. [formula] wherein: total binding: dpm obtained when the concentration of the medicine or PAF is 0,
non-specific binding: dpm obtained when 10^-5 M of cold PAF was added.

Data set [2] relates to blood pressure drop induced by PAF. Put plainly: Action on the blood pressure drop induced by PAF. In kind it is in vivo, F344 rats. To be noted: Rattus norvegicus, iv, 0.05 h, i.v., three minutes after 0.5 μg/kg PAF, ratio of blood pressure rise to drop, read-out: Recovery rate. The procedure: Action on the Blood Pressure Drop Induced by […]
Cannulae were inserted into the carotid and the jugular of each of F344 rats anesthetized with Pento (50 mg/kg, i. p.). The blood pressure was determined at the carotid and 0.5 ml/kg of PAF or the test compound was given through the jugular. Three minutes after the injection of 0.5 μg/kg of PAF, the test compound was given and the antagonism thereof was evaluated.
The recovery rate shown in Table 4 is the ratio of the blood pressure rise by the test compound to the drop thereof.

Data set [3] is described as follows: Determination of stability in aqueous solution. In kind it is physicochemical. As to conditions: pH 7.4, 37° C., 0.5M sodium phosphate. The procedure: Determination of Stability in Aqueous Solution
These compounds were unstable in a neutral or alkaline aqueous solution mainly due to the hydrolysis reaction of the N-acetyl or N-benzoyl group. The relationships between the pH and decomposition rate of several compounds were examined to find that they have the same pattern. The decomposition rate constant under conditions (pH 7.4, 37° C.) where they were relatively easily decomposed was determined and the stabilities of the compounds were compared with one another.
9 parts by volume of a buffer solution (0.5M sodium phosphate, pH 7.4) was added to 1 part by volume of an aqueous sample solution (1 mg/ml) and the mixture was kept at 37° C. The sampling was conducted at appropriate time intervals and the residual rate of an unreacted compound was determined by reversed phase high-performance liquid chromatography. Since the decomposition rate of most of the compounds can be approximately represented by the first-order decomposition rate equation, the decomposition rate constant was determined by the least squares method.

T1 sequence (P25105 whole entry): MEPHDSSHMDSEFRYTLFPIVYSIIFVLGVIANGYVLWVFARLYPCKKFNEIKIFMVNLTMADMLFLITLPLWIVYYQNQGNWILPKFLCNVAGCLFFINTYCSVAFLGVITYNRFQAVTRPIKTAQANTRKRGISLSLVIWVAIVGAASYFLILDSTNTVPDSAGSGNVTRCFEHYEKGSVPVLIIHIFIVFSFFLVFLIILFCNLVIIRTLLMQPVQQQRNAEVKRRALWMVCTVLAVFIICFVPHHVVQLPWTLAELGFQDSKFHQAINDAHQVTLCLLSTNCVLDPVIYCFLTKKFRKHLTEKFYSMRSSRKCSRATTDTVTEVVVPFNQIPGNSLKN

Turning to `CC[n+]1ccccc1CN(C(=O)OCC(COC(=O)NCC1CCCO1)OC)C(=O)c1ccccc1OC` (centres unmarked) [Example 3, 1-Ethyl-2-[N-(2-methoxy)benzoyl-N-{2-methoxy-3-(2-tetrahydrofuranyl)methyl}carbamoyloxypropoxycarbonyl]aminomethylpyridinium chloride], the IC50 was determined as 310 nM in data set [1] and 300 nM on Human PAF Receptor.

Consider `CC[n+]1ccccc1CN(C(=O)OCC(COC(=O)NCCCCCCCCCCNC(=O)N(C)C)OC)C(=O)c1ccccc1OC` (centres unmarked) [Example 5, 1-Ethyl-2-[N-{3-(10-N,N-dimethylcarbamylamino)decylcarbamoyloxy-2-methoxypropyloxy}carbonyl-N-(2-methoxy)benzoyl]aminomethylpyridinium chloride], for which the 50% inhibitory concentration (IC50) is 210 nM in data set [1] and 1.9 nM on Human PAF Receptor.

With `CCCCCCCCCCCCCCCCCCOCCCNC(=O)OCC(COC(=O)N(Cc1cccc[n+]1CC)C(=O)c1ccccc1OC)OC` (centres unmarked) [Example 4, 1-Ethyl-2-[N-(2-methoxy)benzoyl-N-{2-methoxy-3-(3-octadecyloxy)propylcarbamoyloxy}propoxycarbonyl]-aminomethylpyridinium chloride], the half-maximal inhibitory concentration (IC50) in data set [1] was determined as 140 nM; on Human PAF Receptor, 3.5 nM.

Take `CC[n+]1ccccc1CN(C(=O)OCC(COC(=O)Nc1ccc2c(c1)Cc1ccccc1-2)OC)C(=O)c1ccccc1OC` (centres unmarked) [Example 2, 1-Ethyl-2-[N-{3-(2-fluoreneamino)carbonyloxy-2-methoxypropyloxy}carbonyl-N-(2-methoxy)benzoyl]aminomethylpyridinium chloride]: in data set [1], the IC50 came out at 62 nM. Moreover, at Human PAF Receptor, the half-inhibitory concentration (IC50) turned out to be 8.9 nM. Further, in data set [2], the inhibition in vivo at 0.01 mg/kg stood at 79.2% and the inhibition in vivo at 0.1 mg/kg came out at 97.4%.

Turning to `CC[n+]1ccccc1CN(C(=O)OCC(COCc1cc(OC)c(OCC2CCCCC2)c(OC)c1)OC)C(=O)c1ccccc1OC` (centres unmarked) [Example 20, 1-ethyl-2-(((N-((3-(4-cyclohexylmethoxy-3,5-dimethoxy)benzyloxy-2-methoxy))propyloxycarbonyl-N-(2-methoxy)benzoyl))) aminomethylpyridinium chloride], the IC50 in data set [1] is 250 nM; at Human PAF Receptor, 9.1 nM. The inhibition in vivo at 1 mg/kg in data set [2] was determined as 91.1%.

`CCOC(=O)C1CCC(CNC(=O)OCC(COC(=O)N(Cc2cccc[n+]2CC)C(=O)c2ccccc2OC)OC)CC1` (centres unmarked) [Example 7, 1-Ethyl-2-[N-{3-(4-ethoxycarbonyl)cyclohexylmethyl-carbamoyloxy-2-methoxy}propyloxycarbonyl-N-(2-methoxy)benzoyl]aminomethylpyridinium iodide]: the IC50 in data set [1] was 2600 nM.

For the molecule `CC[n+]1ccccc1CN(C(=O)OCC(COC(=O)NCc1ccc(S(=O)(=O)NCC2CCCCC2)cc1)OC)C(=O)c1ccccc1OC` (centres unmarked) [Example 12, 1-Ethyl-2-[N-{3(4-cyclohexylmethylsulfamoyl)benzylcarbamoyloxy-2-methoxypromyloxy}carbonyl-N-(2-methoxy)benzoyl]aminomethylpyridinium chloride], in data set [1], the IC50 was 31 nM.

On to `CC[n+]1ccccc1CN(C(=O)OCC(COC(=O)NCCc1ccc(S(N)(=O)=O)cc1)OC)C(=O)c1ccccc1OC` (centres unmarked) [Example 8, 1-Ethyl-2-[N-(2-methoxy)benzoyl-N-{2-methoxy-3-(2-(4-sulfamoylphenyl)ethylcarbamoyloxy)propyloxy}carbonyl]aminomethylpyridinium iodide], for which the 50% inhibitory concentration (IC50) in data set [1] amounted to 110 nM. The IC50 at Human PAF Receptor came out at 140 nM. In data set [2], the inhibition in vivo at 0.01 mg/kg was determined as 70.1% and the inhibition in vivo at 0.1 mg/kg is 96.7%.

Consider `CC[n+]1ccccc1CN(C(C)=O)C(=O)OCC(COC(=O)Nc1cc(OC)c(OC)c(OC)c1)OC` (centres unmarked) [Example 1, 1-Ethyl-2-[N-acetyl-N-{2-methoxy-3-(3,4,5-trimethoxy)phenylcarbamoyloxypropoxy}carbonyl]aminomethylpyridinium iodide], for which the IC50 in data set [1] worked out at 380 nM. Besides, in data set [2], the inhibition in vivo at 1 mg/kg was determined as 21.7%.

`CC[n+]1ccccc1CN(C(C)=O)C(=O)OCC(COCCc1cc(OC)c(OC)c(OC)c1)OC` (centres unmarked) [Example 16]: the half-inhibitory concentration (IC50) came out at 380 nM in data set [1] and 3500 nM at Human PAF Receptor. Moreover, the inhibition in vivo at 1 mg/kg in data set [2] was determined as 67.8%.

As for `CC[n+]1ccccc1CN1C(=O)CN(CC(COCc2cc(OC)c(OC)c(OC)c2)OC)C1=O` (centres unmarked) [Example 23], the concentration for half-maximal inhibition (IC50) in data set [1] was 700 nM. Further, the half-life in data set [3] (read-out: Half-value period of disappearance due to hydrolysis (t1/2) (converted)) was 15 days.

As to `CC[n+]1ccccc1CN(C(=O)OCC(COC(=O)NCCCC(=O)N1CCOCC1)OC)C(=O)c1ccccc1OC` (centres unmarked) [Example 9, 1-Ethyl-2-[N-(2-methoxy)benzoyl-N-{3-(3-morpholinocarbonylpropan-1-yl)carbamoyloxy-2-methoxypropyloxy}carbonyl]aminomethylpyridinium chloride], the IC50 in data set [1] amounted to 260 nM; at Human PAF Receptor, 790 nM.

Regarding `CC[n+]1ccccc1CN(C(=O)OCC(COCc1ccc(-c2ccccc2)cc1)OC)C(=O)c1ccccc1OC` (centres unmarked) [Example 19, 1-ethyl-2-(((N-((3-(4-biphenylmethyloxy-2-methoxypropyloxy))carbonyl-N-(2-methoxy)benzoyl)))aminomethylpyridinium chloride], the IC50 in data set [1] turned out to be 25 nM; on Human PAF Receptor it was 2.2 nM. In addition, the inhibition in vivo at 1 mg/kg in data set [2] is 74.9%.

Consider `CCCCCOCCCCCOCCCCCNC(=O)OCC(COC(=O)N(Cc1cccc[n+]1CC)C(=O)c1ccccc1OC)OC` (centres unmarked) [Example 10, 1-Ethyl-2-[N-{3-(6,12-dioxaheptadecyl)carbamoyloxy-2-methoxypropyloxy}carbonyl-N-(2-methoxy)benzoyl]aminomethylpyridinium iodide], for which the IC50 in data set [1] was 300 nM. For the same molecule, the half-inhibitory concentration (IC50) at Human PAF Receptor was 16 nM. In data set [2], the inhibition in vivo at 0.01 mg/kg came to 42.5% and the inhibition in vivo at 0.1 mg/kg is 59.6%.

Turning to `CC[n+]1ccccc1CN(C(C)=O)C(=O)OCC(COc1cc(OC)c(OC)c(OC)c1)OC` (centres unmarked) [Example 17, 1-ethyl-2-(((N-acetyl-N-((2-methoxy-3-(3,4,5-trimethoxy)phenoxypropyloxy))carbonyl))) aminomethyl pyridium iodide], the 50% inhibitory concentration (IC50) in data set [1] turned out to be 340 nM; on Human PAF Receptor, 3500 nM. The inhibition in vivo at 1 mg/kg in data set [2] was found to be 97.5%.

Consider `CC[n+]1ccccc1CN(C(=O)OCC(COCc1cc(OC)c(OC)c(OC)c1)OC)C(=O)N(C)C` (centres unmarked) [Example 22, 1-ethyl-2-(((N-(N,N-dimethyl)carbamyl-N-((2-methoxy-3-(3,4,5-trimethoxy)benzyloxypropyloxy))carbonyl))) aminomethylpyridinium iodide], for which the “Half-value period of disappearance due to hydrolysis (t1/2)” value in data set [3] is reported as “infinite”.

As to `CCCCCCCCCCCCCCCCCC(=O)N1CCN(C(=O)OCC(COC(=O)N(Cc2cccc[n+]2CC)C(=O)c2ccccc2OC)OC)CC1` (centres unmarked) [Example 11, 1-Ethyl-2-[N-(2-methoxy)benzoyl-N-(2-methoxy-3-(4-stearoylpiperazinocarbonyl)oxypropyloxy}carbonyl]aminomethylpyridinium iodide], the values for the IC50 (in data set [1]; at Human PAF Receptor) were 86 nM and 25 nM, respectively.
